The results in this text go back to ChEMBL document CHEMBL5113452, “Synthesis and biological evaluation of hybrids from optically active ring-opened 3-N-butylphthalide derivatives and 4-fluro-edaravone as potential anti-acute ischemic stroke agents” (Bioorg Med Chem, 2022).

Activity calls are given as the source filed them. The calls are words filed in the database; no cut-off is given here.

Data set [1] is described as follows: Toxicity in transient middle cerebral artery occlusion induced ischemia stroke Sprague-Dawley rat model assessed as change in body weight at 4.48 mg/kg, iv and measured after 24 hrs in presence of EDA. Format: organism-based. The conditions noted are these: in vivo.
Data set [2] relates to Rattus norvegicus. Description: Neuroprotective activity against transient middle cerebral artery occlusion induced ischemia stroke Sprague-Dawley rat model assessed as increase in neuro-fucntional score at 4.48 mg/kg, iv and measured after 24 hrs in presence of Eda by longa's method. Format: functional, organism-based.
Data set [3] is described as follows: Volume of distribution at steady state in Sprague-Dawley rat plasma at 4.48 mg/kg, iv and measured upto 24 hrs in presence of 4-F-Eda by LC-MS/MS analysis. Format: ADME, organism-based. To be noted: read-out: Vdss.
Data set [4] concerns Rattus norvegicus. Description: Neuroprotective activity against transient middle cerebral artery occlusion induced cerebral infraction Sprague-Dawley rat model assessed as decrease in cerebral infraction volume at 4.48 mg/kg, iv and measured after 24 hrs in presence of EDA by TTC staining based assay. The format is functional. More on the design: scale not given: the % may be the effect or the level left.

Data set [5] is described as follows: AUMC (0-infinity) in Sprague-Dawley rat plasma at 4.48 mg/kg, iv and measured upto 24 hrs in presence of 4-F-Eda by LC-MS/MS analysis. The format is ADME, organism-based. To be noted: in vivo.
The nature of data set [6]: AUC (0-t) in Sprague-Dawley rat plasma at 4.48 mg/kg, iv and measured upto 24 hrs by LC-MS/MS analysis. Format: ADME, organism-based. More on the design: time < 24 hrs, dose 4.48 mg/kg, route iv.
Data set [7] can be described thus: AUMC (0-infinity) in Sprague-Dawley rat plasma at 4.48 mg/kg, iv and measured upto 24 hrs by LC-MS/MS analysis. To be noted: in vivo. Format: ADME, organism-based.
Data set [8] can be described thus: AUC (0-infinity) in Sprague-Dawley rat plasma at 4.48 mg/kg, iv and measured upto 24 hrs in presence of 4-F-Eda by LC-MS/MS analysis. Format: ADME, organism-based. More on the design: dose 4.48 mg/kg, time < 24 hrs, route iv.
The nature of data set [9]: Volume of distribution at steady state in Sprague-Dawley rat plasma at 4.48 mg/kg, iv and measured upto 24 hrs by LC-MS/MS analysis. The conditions noted are these: read-out: Vdss. Format: ADME, organism-based.
A short description of data set [10]: AUMC (0-t) in Sprague-Dawley rat plasma at 4.48 mg/kg, iv and measured upto 24 hrs in presence of 4-F-Eda by LC-MS/MS analysis. The format is ADME, organism-based. The conditions noted are these: in vivo.
Data set [11] can be described thus: Clearance in Sprague-Dawley rat plasma at 4.48 mg/kg, iv and measured upto 24 hrs in presence of 4-F-Eda by LC-MS/MS analysis. The format is ADME, organism-based.
Data set [12] can be described thus: AUC (0-infinity) in Sprague-Dawley rat plasma at 4.48 mg/kg, iv and measured upto 24 hrs by LC-MS/MS analysis. The format is ADME, organism-based. Also noted: time < 24 hrs, dose 4.48 mg/kg, route iv.
The nature of data set [13]: Cmax in Sprague-Dawley rat plasma at 4.48 mg/kg, iv and measured upto 24 hrs in presence of 4-F-Eda by LC-MS/MS analysis. The format is ADME, organism-based. More on the design: time < 24 hrs, dose 4.48 mg/kg, route iv.
Data set [14] in a line: Elimination rate constant in Sprague-Dawley rat plasma at 4.48 mg/kg, iv and measured upto 24 hrs in presence of 4-F-Eda by LC-MS/MS analysis. Format: ADME, organism-based.
A short description of data set [15]: AUMC (0-t) in Sprague-Dawley rat plasma at 4.48 mg/kg, iv and measured upto 24 hrs by LC-MS/MS analysis. Format: ADME, organism-based. The conditions noted are these: in vivo.
Data set [16] in a line: Clearance in Sprague-Dawley rat plasma at 4.48 mg/kg, iv and measured upto 24 hrs by LC-MS/MS analysis. The format is ADME, organism-based.
A short description of data set [17]: MRT in Sprague-Dawley rat plasma at 4.48 mg/kg, iv and measured upto 24 hrs by LC-MS/MS analysis. Format: ADME, organism-based.
The nature of data set [18]: AUC (0-t) in Sprague-Dawley rat plasma at 4.48 mg/kg, iv and measured upto 24 hrs in presence of 4-F-Eda by LC-MS/MS analysis. The format is ADME, organism-based. Also noted: time < 24 hrs, dose 4.48 mg/kg, route iv.
Data set [19] in a line: C0 in Sprague-Dawley rat plasma at 4.48 mg/kg, iv and measured upto 24 hrs by LC-MS/MS analysis. Format: ADME, organism-based.
Data set [20] is described as follows: Elimination rate constant in Sprague-Dawley rat plasma at 4.48 mg/kg, iv and measured upto 24 hrs by LC-MS/MS analysis. The format is ADME, organism-based.
A short description of data set [21]: C0 in Sprague-Dawley rat plasma at 4.48 mg/kg, iv and measured upto 24 hrs in presence of 4-F-Eda by LC-MS/MS analysis. The format is ADME, organism-based.
Data set [22] in a line: Half life in Sprague-Dawley rat plasma at 4.48 mg/kg, iv and measured upto 24 hrs in presence of 4-F-Eda by LC-MS/MS analysis. The format is ADME, organism-based.
Data set [23] can be described thus: Half life in Sprague-Dawley rat plasma at 4.48 mg/kg, iv and measured upto 24 hrs by LC-MS/MS analysis. The format is ADME, organism-based.
The test system of data set [24] is Rattus norvegicus. Description: Neuroprotective activity against transient middle cerebral artery occlusion induced cerebral infraction Sprague-Dawley rat model assessed as decrease in brain edema at 4.48 mg/kg, iv and measured after 24 hrs in presence of EDA. Format: functional, organism-based.
Data set [25] in a line: MRT in Sprague-Dawley rat plasma at 4.48 mg/kg, iv and measured upto 24 hrs in presence of 4-F-Eda by LC-MS/MS analysis. The format is ADME, organism-based.
Data set [26] can be described thus: Cmax in Sprague-Dawley rat plasma at 4.48 mg/kg, iv and measured upto 24 hrs by LC-MS/MS analysis. The format is ADME, organism-based. More on the design: dose 4.48 mg/kg, time < 24 hrs, route iv.
Data set [27] relates to Rattus norvegicus. Description: Neuroprotective activity against transient middle cerebral artery occlusion induced cerebral infraction Sprague-Dawley rat model assessed as decrease in brain edema at 10 mg/kg, iv and measured after 24 hrs. Format: functional.
The nature of data set [28]: Toxicity in transient middle cerebral artery occlusion induced ischemia stroke Sprague-Dawley rat model assessed as change in body weight at 10 mg/kg, iv and measured after 24 hrs. Format: organism-based. To be noted: in vivo.
The test system of data set [29] is Rattus norvegicus. Description: Neuroprotective activity against transient middle cerebral artery occlusion induced cerebral infraction Sprague-Dawley rat model assessed as decrease in cerebral infraction volume at 10 mg/kg, iv and measured after 24 hrs by TTC staining based assay. More on the design: scale not given: the % may be the effect or the level left. Format: functional.

Data set [30] deals with Rattus norvegicus. Description: Neuroprotective activity against transient middle cerebral artery occlusion induced ischemia stroke Sprague-Dawley rat model assessed as increase in neuro-fucntional score at 10 mg/kg, iv and measured after 24 hrs by longa's method. Format: functional, organism-based.
The subject of data set [31] is Rattus norvegicus. Description: Neuroprotective activity against transient middle cerebral artery occlusion induced ischemia stroke Sprague-Dawley rat model assessed as increase in neuro-fucntional score at 5.9 mg/kg, iv and measured after 24 hrs by longa's method. Format: functional, organism-based.
In data set [32] the test system is Rattus norvegicus. Description: Neuroprotective activity against transient middle cerebral artery occlusion induced cerebral infraction Sprague-Dawley rat model assessed as decrease in cerebral infraction volume at 5.9 mg/kg, iv and measured after 24 hrs by TTC staining based assay. Also noted: scale not given: the % may be the effect or the level left. The format is functional.

Data set [33] concerns Rattus norvegicus. Description: Neuroprotective activity against transient middle cerebral artery occlusion induced ischemia stroke Sprague-Dawley rat model assessed as increase in neuro-fucntional score at 5.9 mg/kg, iv and measured after 24 hrs in presence of 4-F-Eda by longa's method. The format is functional, organism-based.
The test system of data set [34] is Rattus norvegicus. Description: Neuroprotective activity against transient middle cerebral artery occlusion induced cerebral infraction Sprague-Dawley rat model assessed as decrease in cerebral infraction volume at 5.9 mg/kg, iv and measured after 24 hrs in presence of 4-F-Eda by TTC staining based assay. The format is functional. More on the design: scale not given: the % may be the effect or the level left.

The nature of data set [35]: Toxicity in transient middle cerebral artery occlusion induced ischemia stroke Sprague-Dawley rat model assessed as change in body weight at 5.90 mg/kg, iv and measured after 24 hrs in presence of 4-F-Eda. Format: organism-based. The conditions noted are these: in vivo, 5.9 mg/kg.
Data set [36] in a line: Toxicity in transient middle cerebral artery occlusion induced ischemia stroke Sprague-Dawley rat model assessed as change in body weight at 5.90 mg/kg, iv and measured after 24 hrs. The format is organism-based. The conditions noted are these: in vivo, 5.9 mg/kg.
The subject of data set [37] is Rattus norvegicus. Description: Neuroprotective activity against transient middle cerebral artery occlusion induced cerebral infraction Sprague-Dawley rat model assessed as decrease in brain edema at 5.9 mg/kg, iv and measured after 24 hrs in presence of 4-F-Eda. The format is functional, organism-based.
Data set [38] deals with Rattus norvegicus. Description: Neuroprotective activity against transient middle cerebral artery occlusion induced cerebral ischemia Sprague-Dawley rat model assessed as decrease in infract volume at 140 mg/kg, po and measured after 24 hrs by TTC staining based assay. Format: functional. Also noted: scale not given: the % may be the effect or the level left.
Data set [39] has as its system Rattus norvegicus. Description: Neuroprotective activity against transient middle cerebral artery occlusion induced cerebral ischemia Sprague-Dawley rat model assessed as decrease in infract volume at 70 mg/kg, po and measured after 24 hrs by TTC staining based assay. The format is functional. Also noted: scale not given: the % may be the effect or the level left.

By AUC(0-t) is commonly meant exposure summed from dosing to a finite time, without extrapolation to infinity. For orientation: AUC(0-inf) means the area under the concentration-time curve extrapolated to infinity. What is called clearance is the volume of plasma or blood freed of the substance per unit of time. By Cmax is commonly meant the maximum level reached in the sampled fluid or tissue. For orientation: MRT means a mean duration of stay, worked out from the concentration-time curve. In general, half-life refers to how long it takes for the measured level to halve.

For `CCCC[C@@H]1OC(=O)c2ccccc21` [(3S)-BUTYLPHTHALIDE], the Activity entry in [1] is reported as “Non-Toxic”; in [4] it was 57.7%. The result in data set [2] and in data set [24] was Active. In addition, the Vd was 2.73 L/kg in [3] and 2.08 L/kg in [9]. Besides, the AUMC is reported as 5006 hr.hr.ng/ml in [5] and 998 hr.hr.ng/ml in data set [7]. Also, the AUC(0-t) at 24 h worked out at 1470 ng·h/mL in data set [6] and 2840 ng·h/mL in data set [18]. Further, the AUC(0-inf) in data set [8] was determined as 2870 ng·h/mL; in [12] it was 1480 ng·h/mL. Besides, the AUMCt in data set [10] is on record as 3819 hr.hr.ng/ml; in [15], 943 hr.hr.ng/ml. In addition, the figures for the clearance in data set [11] and in [16] were 26.3 mL/min/kg and 51.1 mL/min/kg, respectively. In addition, the Cmax was 6920 ng/mL in [13] and 3290 ng/mL in data set [26]. Besides, the k el at 24 h was 4.06e-05 s⁻¹ in data set [14] and 0.000202 s⁻¹ in data set [20]. For the same compound, the MRT in [17] amounted to 0.678 h; in [25] it was 1.74 h. Besides, the C0 at 24 h stood at 5310 ng/mL in data set [19] and 13000 ng/mL in data set [21]. Moreover, the values for the half-life in data set [22] and in [23] were 5.05 h and 0.97 h, respectively.

On to `CCCC[C@@H](OC(C)=O)c1ccccc1C(=O)Oc1cc(C)nn1-c1ccc(F)cc1`, for which the outcome in data set [27] and in [30] was Active. In addition, the Activity result in data set [28] was “Non-Toxic”; in data set [29], 67.56%.

On to `CCCC[C@H](OC(C)=O)c1ccccc1C(=O)O`, for which the result in data set [31], in data set [33] and in [37] was Active. The Activity in data set [32] is on record as 12.67%; in data set [34] it was 68.37%; in data set [35] it was “Non-Toxic”; in [36], “Non-Toxic”.

For `CCCCC(OC(C)=O)c1ccccc1C(=O)Oc1cc(C)nn1-c1ccc(F)cc1` (racemic), the Activity is listed as 61.77% in [38], “Non-Toxic” in [28], 66.89% in data set [29] and 52.8% in data set [39]. For the same compound, the outcome in [30] was Active.
